Consider 28 compounds from US7732618B2, “Benzimidazole acetic acids exhibiting CRTH2 receptor antagonism and uses thereof” (Wyeth, priority 2004, dated 2010).

Each structure is given as a SMILES string.

In the assay the target is T1, human CRTH2 (Homo sapiens, UniProt Q9Y5Y4).
T1 sequence (Q9Y5Y4 1-395): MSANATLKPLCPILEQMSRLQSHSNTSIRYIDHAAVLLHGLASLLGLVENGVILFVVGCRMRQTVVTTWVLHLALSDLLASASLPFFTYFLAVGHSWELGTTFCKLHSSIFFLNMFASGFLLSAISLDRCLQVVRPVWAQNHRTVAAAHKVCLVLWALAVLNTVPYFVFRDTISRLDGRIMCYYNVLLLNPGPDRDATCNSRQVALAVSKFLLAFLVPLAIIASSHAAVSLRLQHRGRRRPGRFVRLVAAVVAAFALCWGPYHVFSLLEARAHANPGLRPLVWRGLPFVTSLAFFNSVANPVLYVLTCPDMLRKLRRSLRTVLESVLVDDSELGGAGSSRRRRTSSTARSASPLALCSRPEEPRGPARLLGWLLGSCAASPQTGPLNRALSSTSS
The assay is described as follows: CRTH-2 binding assay (scintillation proximity assay, inhibition of 3H-PGD2 binding). Set-up: expressed in transfected cells; host or cells: 293EBNA-hCRTH2 cells (membrane preparation). Conditions: membranes from 293EBNA-hCRTH2 cells, 3H-PGD2 3.6 nM; Ki calculated from IC50. The procedure: A CRTH2 binding assay was developed to measure the ability of compounds to inhibit the binding of PGD2 to human CRTH2 using a scintillation proximity assay.
Membranes containing hCRTH2 receptors were prepared from 293EBNA-hCRTH2 cells (a 293EBNA cell line stably expressing human CRTH2). The cells were grown to confluency, harvested and washed with PBS. The cells were resuspended in 10 mM Hepes pH 7.4, 1 mM EDTA and protease inhibitors and incubated for 30 min on ice. The cells were homogenized and centrifuged for 10 min at 1000×g. The supernate was centrifuged for 30 min at 100,000×g and the membrane pellet was then resuspended in 10 mM Hepes pH 7.4 and 1 mM EDTA. The protein concentration of the membrane preparation was determined by Bradford assay (Bio-Rad).
The ability of compounds to inhibit the interaction of PGD2 to human CRTH2 was determined at seven compound concentrations. Compounds were serially diluted in DMSO then diluted into CRTH2 buffer (10 mM Hepes pH 7.4, 1 mM EDTA, 10 mM MnCl2) to six times the final desired concentration. 20 μL of the diluted compounds were transferred into non-surface binding 96-well plates (Corning). Each concentration was done in triplicate. In addition to test compounds, each plate contained 12 control wells. Six of these wells contained 20 μL of CRTH2 buffer. These wells were used to measure total binding. Six wells contained 20 μL of CRTH2 buffer plus 1.5 mM indomethacin. These wells were used to measure non-specific binding. Next, 293EBNA-hCRTH2 membranes were resuspended in CRTH2 buffer with glycerol (10 mM Hepes pH 7.4, 1 mM EDTA, 10 mM MnCl2, 25% glycerol) so that the final concentration was approximately 20 μg/100 μL. Polylysine-coated yttrium silicate SPA beads (Amersham) were added to the membrane mix to a concentration of 0.4 mg/100 μL and finally ^3H-PGD2 was added to the membrane/SPA bead mix to 3.6 nM. 100 μL of the membrane/SPA bead/^3H-PGD2 mix was added to each well of the non-surface binding plates containing the diluted compound or controls. The plates were incubated for 2 hours at room temperature with shaking and then the plates were counted on a Microbeta scintillation counter (Perkin Elmer) for 1 min per well.
IC50 values were determined from the experimental results by nonlinear regression using Prism 4.0 software. The IC50 values were then used in conjunction with the Kd for hCRTH2 and the ^3H-PGD2 concentration used in the experiment to calculate the Ki for each compound.

Turning to `CCCc1nc2cc(NS(=O)(=O)c3ccc(F)cc3)ccc2n1CC(=O)O` [Example 1, [5-(4-Fluoro-benzenesulfonylamino)-2-propyl-benzoimidazol-1-yl]-acetic acid], the Ki (in general, a dissociation constant, usually derived from enzyme kinetics or from competition with a known ligand) was below 1 µM. `CCCC(C)c1nc2cc(NS(=O)(=O)c3ccc(F)cc3)ccc2n1CC(=O)O` (stereo not shown) [Example 2, [5-(4-Fluoro-benzenesulfonylamino)-2-(1-methyl-butyl)-benzoimidazol-1-yl]-acetic acid]: the Ki is below 1 µM. For the compound `CCc1nc2cc(NS(=O)(=O)c3ccc(F)cc3)ccc2n1CC(=O)O` [Example 3, [2-Ethyl-5-(4-fluoro-benzenesulfonylamino)-benzoimidazol-1-yl]-acetic acid], the inhibition constant Ki was below 1 µM. For the compound `CC(C)=CCCC(C)c1nc2cc(NS(=O)(=O)c3ccc(F)cc3)ccc2n1CC(=O)O` (stereo not shown) [Example 4, [2-(1,5-Dimethyl-hex-4-enyl)-5-(4-fluoro-benzenesulfonylamino)-benzoimidazol-1-yl]-acetic acid], the Ki was below 10 µM.

For the compound `CSCCc1nc2cc(NS(=O)(=O)c3ccc(F)cc3)ccc2n1CC(=O)O` [Example 5, [5-(4-Fluoro-benzenesulfonylamino)-2-(2-methylsulfanyl-ethyl)-benzoimidazol-1-yl]-acetic acid], the Ki was below 10 µM. For the compound `CC/C=C/c1nc2cc(NS(=O)(=O)c3ccc(F)cc3)ccc2n1CC(=O)O` [Example 6, [2-But-1-enyl-5-(4-fluoro-benzenesulfonylamino)-benzoimidazol-1-yl]-acetic acid], the Ki was below 10 µM.

Turning to `CC(C)Cc1nc2cc(NS(=O)(=O)c3ccc(F)cc3)ccc2n1CC(=O)O` [Example 7, [5-(4-Fluoro-benzenesulfonylamino)-2-isobutyl-benzoimidazol-1-yl]-acetic acid], the Ki was below 10 µM. As to `CC(Cc1nc2cc(NS(=O)(=O)c3ccc(F)cc3)ccc2n1CC(=O)O)CC(C)(C)C` (stereo not shown) [Example 8, [5-(4-Fluoro-benzenesulfonylamino)-2-(2,4,4-trimethyl-pentyl)-benzoimidazol-1-yl]-acetic acid], the Ki is above 10 µM. Take `CCCCCc1nc2cc(NS(=O)(=O)c3ccc(F)cc3)ccc2n1CC(=O)O` [Example 9, [5-(4-Fluoro-benzenesulfonylamino)-2-pentyl-benzoimidazol-1-yl]-acetic acid]: the Ki is above 10 µM. As for `CCCCC(CC)c1nc2cc(NS(=O)(=O)c3ccc(F)cc3)ccc2n1CC(=O)O` (stereo not shown) [Example 10, [2-(1-Ethyl-pentyl)-5-(4-fluoro-benzenesulfonylamino)-benzoimidazol-1-yl]-acetic acid], the Ki is above 10 µM. Take `C=CCOC(=O)NCCc1nc2cc(NS(=O)(=O)c3ccc(F)cc3)ccc2n1CC(=O)O` [Example 11, [2-(2-Allyloxycarbonylamino-ethyl)-5-(4-fluoro-benzenesulfonylamino)-benzoimidazol-1-yl]-acetic acid]: the inhibitory constant (Ki) is below 10 µM.

As for `CCCCc1nc2cc(NS(=O)(=O)c3ccc(F)cc3)ccc2n1CC(=O)O` [Example 12, [2-Butyl-5-(4-fluoro-benzenesulfonylamino)-benzoimidazol-1-yl]-acetic acid], the Ki was below 1 µM.

On to `CC(C)c1nc2cc(NS(=O)(=O)c3ccc(F)cc3)ccc2n1CC(=O)O` [Example 13, [5-(4-Fluoro-benzenesulfonylamino)-2-isopropyl-benzoimidazol-1-yl]-acetic acid], for which the inhibitory constant (Ki) was below 1 µM. Turning to `CCCc1nc2cc(N(Cc3ccccc3)S(=O)(=O)c3ccc(F)cc3)ccc2n1CC(=O)O` [Example 14, {5-[Benzyl-(4-fluoro-benzenesulfonyl)-amino]-2-propyl-benzoimidazol-1-yl}-acetic acid], the Ki is below 0.1 µM. `CCCCc1nc2cc(N(Cc3ccccc3)S(=O)(=O)c3ccc(F)cc3)ccc2n1CC(=O)O` [Example 15, {5-[Benzyl-(4-fluoro-benzenesulfonyl)-amino]-2-butyl-benzoimidazol-1-yl}-acetic acid]: the Ki is below 1 µM. The same measure for `CC(C)c1nc2cc(N(Cc3ccccc3)S(=O)(=O)c3ccc(F)cc3)ccc2n1CC(=O)O` [Example 16, {5-[Benzyl-(4-fluoro-benzenesulfonyl)-amino]-2-isopropyl-benzoimidazol-1-yl}-acetic acid]: below 1 µM; for `CCCCc1nc2cc(N(C)S(=O)(=O)c3ccc(F)cc3)ccc2n1CC(=O)O` [Example 17, {2-Butyl-5-[(4-fluoro-benzenesulfonyl)-methyl-amino]-benzoimidazol-1-yl}-acetic acid]: below 1 µM; for `CCCc1nc2cc(N(CC(=O)OCC)S(=O)(=O)c3ccc(F)cc3)ccc2n1CC(=O)O` [Example 18, {5-[Ethoxycarbonylmethyl-(4-fluoro-benzenesulfonyl)-amino]-2-propyl-benzoimidazol-1-yl}-acetic acid]: below 1 µM. For the compound `CCCc1nc2cc(N(Cc3ccc(F)cc3)S(=O)(=O)c3ccc(F)cc3)ccc2n1CC(=O)O` [Example 19, {5-[(4-Fluoro-benzenesulfonyl)-(4-fluoro-benzyl)-amino]-2-propyl-benzoimidazol-1-yl}-acetic acid], the inhibition constant Ki is below 0.1 µM. For `CCCc1nc2cc(N(CCC(C)C)S(=O)(=O)c3ccc(F)cc3)ccc2n1CC(=O)O` [Example 20, {5-[(4-Fluoro-benzenesulfonyl)-(3-methyl-butyl)-amino]-2-propyl-benzoimidazol-1-yl}-acetic acid], the Ki was below 0.1 µM. On to `CCCc1nc2cc(N(C(C)C)S(=O)(=O)c3ccc(F)cc3)ccc2n1CC(=O)O` [Example 21, {5-[(4-Fluoro-benzenesulfonyl)-isopropyl-amino]-2-propyl-benzoimidazol-1-yl}-acetic acid], for which the inhibition constant (Ki) was below 0.1 µM.

As to `CCCc1nc2cc(N(Cc3csc(C)n3)S(=O)(=O)c3ccc(F)cc3)ccc2n1CC(=O)O` [Example 22, {5-[(4-Fluoro-benzenesulfonyl)-(2-methyl-thiazol-4-ylmethyl)-amino]-2-propyl-benzoimidazol-1-yl}-acetic acid], the inhibitory constant (Ki) is below 1 µM. For `CCCc1nc2cc(N(CC3COc4ccccc4O3)S(=O)(=O)c3ccc(F)cc3)ccc2n1CC(=O)O` (stereo not shown) [Example 23, {5-[(2,3 -Dihydro-benzo[1,4]dioxin-2-ylmethyl)-(4-fluoro-benzenesulfonyl)-amino]-2-propyl-benzoimidazol-1-yl}-acetic acid], the Ki was below 0.1 µM. Turning to `CCCc1nc2cc(N(Cc3c(C)noc3C)S(=O)(=O)c3ccc(F)cc3)ccc2n1CC(=O)O` [Example 24, {5-[(3,5-Dimethyl-isoxazol-4-ylmethyl)-(4-fluoro-benzenesulfonyl)-amino]-2-propyl-benzoimidazol-1-yl}-acetic acid], the Ki is below 1 µM. Consider `CCCc1nc2cc(NC(=O)OC(C)(C)C)ccc2n1CC(=O)O` [Example 25, (5-tert-Butoxycarbonylamino-2-propyl-benzoimidazol-1-yl)-acetic acid], for which the Ki is below 10 µM. To `CCCc1nc2cc(N3C(=O)c4ccccc4S3(=O)=O)ccc2n1CC(=O)O` [Example 26, [2-Propyl-5-(1,1,3-trioxo-1,3-dihydro-1λ^6-benzo[d]isothiazol-2-yl)-benzoimidazol-1-yl]-acetic acid] belongs below 10 µM; to `CCCc1nc2cc(N(Cc3ccc(F)cc3)S(=O)(=O)c3cccc(F)c3)ccc2n1CC(=O)O` [Example 27, {5-[(3-Fluoro-benzenesulfonyl)-(4-fluoro-benzyl)-amino]-2-propyl-benzoimidazol-1-yl}-acetic acid], below 1 µM. For the compound `CCCc1nc2cc(N(Cc3ccc(F)cc3)S(=O)(=O)c3ccccc3F)ccc2n1CC(=O)O` [Example 28, {5-[(2-Fluoro-benzenesulfonyl)-(4-fluoro-benzyl)-amino]-2-propyl-benzoimidazol-1-yl}-acetic acid], the Ki was below 1 µM.
